US20210085630A1, “PHARMACEUTICAL COMPOSITION AND USE THEREOF IN PREPARING DRUG FOR TREATING TUMOR MULTI-DRUG RESISTANCE” (SICHUAN JIUZHANG BIOLOGICAL SCIENCE AND TECHNOLOGY CO., LTD., priority 2018, published 2021)
In brackets after ≈: the same amount, converted by molar mass. Structures can show the parent of a compound that is named as a salt. Marks after values point to notes of the source that are not given here.

Legend:
[1] = test system: CD4+T and CD8+T lymphocytes; assay: Number of CD4+T and CD8+T cells (immunofluorescence), drug-resistant Lewis lung cancer transplanted tumor; assay type: in vivo; conditions: transplanted tumor of drug-resistant Lewis lung cancer in mice, average of 6 high power fields
Method: (§1) The number of CD4+T and CD8+T lymphocytes was analyzed by immunofluorescence staining, and the average number of CD4+T and CD8+T cells infiltrated in 6 high power fields was counted.

[2] = test system: drug-resistant A549 lung cancer cell lines; assay: MTT: IC50 of gemcitabine against drug-resistant A549 cells and drug-resistant index; assay type: cell-based, human
Method: A549 lung cancer cell lines were exposed to gemcitabine (2000 μg/ml) for 3 months, and centrifuged, to culture gemcitabine-resistant A549 cells. The cells were observed every day, and taken through 3 passages for about 3 days, to ensure cell viability.
Above-mentioned cell lines and drug-resistant cell lines in the logarithmic growth phase were selected, the cell concentration was adjusted to 8×10^3 cells/well, and then cells were seeded in a 96-well plate. For the experiment, there were three groups: blank group, control group and gemcitabine group. In the blank group, only medium was added, without inoculating cells; in the control group, medium was added, and cells were inoculated; in the gemcitabine group, medium was added, cells were inoculated, and then gemcitabine was added at different concentrations. The plates were placed in an incubator and incubated for 48 h, then 5 mg/ml MTT (20 μl) was added to each well, and the plate was further incubated for 4 h. […] Drug-resistant index=IC50 value of drug-resistant cells/IC50 value of sensitive cells

[3] = test system: gemcitabine-resistant Lewis lung cancer; assay: Tumor weight and inhibition rate, transplanted gemcitabine-resistant Lewis lung cancer; assay type: in vivo; conditions: gemcitabine-resistant Lewis lung cancer mice; test drug 30 mg/kg i.p. once a day 5 days, then gemcitabine 300 mg/kg every other day; positive drug gemcitabine 300 mg/kg
Method: Lewis lung cancer cell lines were induced by the increased gradient concentration of gemcitabine, and established by clone screening and cultured without drug before the experiment.
(§2) After the drug was removed from the drug-resistant cell lines, the cell concentration was adjusted to 1×10^7/ml with the culture medium. 1×10^7/ml of cells were subcutaneously injected into the right armpit of mice, 0.1 ml per mouse.
(§3) After the average diameter of tumor reached […], the mice were randomly divided into test drug group 1, test drug group 2, test drug group 3, test drug group 4, test drug group 5, test drug group 6, positive drug group, and negative group, respectively.
(§4) Test drug group: the test drug group was first intraperitoneally injected, once a day, 30 mg/kg/time, for 5 consecutive days; administration was stopped, and the positive drug was given by intraperitoneal injection on the next day; wherein the positive drug dacarbazine was administrated once every other day, 60 mg/kg/time; wherein the positive drug gemcitabine was given once every other day, 300 mg/kg/time.
(§5) Positive drug group: positive drug dacarbazine was given once every other day, 60 mg/kg/time; positive drug gemcitabine was given once every other day, 300 mg/kg/time.
(§6) Negative group: normal saline was intraperitoneally injected, once a day, for 15 consecutive days.
(§7) After completion of administration, the experiment was stopped, and the mice were killed by cervical dislocation and weighed. The tumor was stripped and weighed, to calculate the tumor inhibition rate.

[4] = test system: multi-drug resistant Lewis lung cancer; assay: Tumor weight and inhibition rate, transplanted multi-drug resistant Lewis lung cancer; assay type: in vivo, mice; conditions: for Tumor weight / Tumor-inhibition rate (%): multi-drug resistant Lewis lung cancer mice, test drug 30 mg/kg i.p. 5 days, then gemcitabine 300 mg/kg or dacarbazine 60 mg/kg every other day
Method: Lewis lung cancer cell lines were induced by the increased gradient concentration of dacarbazine and gemcitabine, and established by clone screening, then cultured without drug before the experiment.
as §2, §3, §4, §5, §6, §7

PD-1/PD-L1 [5] = assay: PD-1/PD-L1 expression rate in transplanted tumor tissues, multidrug resistance model; assay type: in vivo; conditions: transplanted tumor tissues of B16 melanoma mice with multidrug resistance (as titled), Example 5 regimen
Description: (§8) The positive expression rate of PD-1/PD-L1 in tumor tissues was detected by immunohistochemical SP method.

[6] = test system: CD4+T and CD8+T lymphocytes; assay: Number of CD4+T and CD8+T lymphocytes in transplanted tumor of multidrug-resistant Lewis lung cancer mice; assay type: in vivo; conditions: average of 6 high power fields
Method: as §1

PD-1/PD-L1 [7] = assay: PD-1/PD-L1 expression rate (immunohistochemical SP method), drug-resistant Lewis lung cancer tumor tissue; assay type: in vivo; conditions: transplanted tumor tissues of drug-resistant Lewis lung cancer in mice, Example 3 regimen
Description: as §8

PD-1/PD-L1 [8] = assay: PD-1/PD-L1 expression rate (immunohistochemical SP method), drug-resistant B16 melanoma tumor tissue; assay type: in vivo; conditions: transplanted tumor tissues of drug-resistant B16 melanoma in mice, Example 3 regimen
Description: as §8

[9] = test system: CD4+T and CD8+T lymphocytes; assay: Number of CD4+T and CD8+T cells (immunofluorescence), drug-resistant B16 melanoma transplanted tumor; assay type: in vivo; conditions: transplanted tumor of drug-resistant B16 melanoma in mice, average of 6 high power fields
Method: as §1

[10] = test system: drug-resistant A375 melanoma cell lines; assay: MTT: IC50 of dacarbazine against drug-resistant A375 cells and drug-resistant index; assay type: cell-based, human
Method: A375 melanoma cell lines were exposed to dacarbazine (400 μg/ml) for 3 months, and centrifuged, to culture dacarbazine-resistant A375 cells. The cells were observed every day, and taken through 3 passages for about 3 days, to ensure cell viability.
Above-mentioned cell lines and drug-resistant cell lines in the logarithmic growth phase were selected, the cell concentration was adjusted to 8×10^3 cells/well, and then cells were seeded in a 96-well plate. For the experiment, there were three groups: blank group, control group and dacarbazine group. In the blank group, only medium was added, without inoculating cells; in the control group, medium was added, and cells were inoculated; in the dacarbazine group, medium was added, cells were inoculated, and then dacarbazine was added at different concentrations. The plates were placed in an incubator and incubated for 48 h, then 5 mg/ml MTT (20 μl) was added to each well, and the plate was further incubated for 4 h.
Drug-resistant index=IC50 value of drug-resistant cells/IC50 value of sensitive cells

[11] = test system: dacarbazine-resistant B16 melanoma; assay: Tumor weight and inhibition rate, transplanted dacarbazine-resistant B16 melanoma; assay type: in vivo; conditions: dacarbazine-resistant B16 melanoma mice; test drug 30 mg/kg i.p. once a day 5 days, then dacarbazine 60 mg/kg every other day; positive drug dacarbazine 60 mg/kg
Method: B16 melanoma cell lines were induced by the increased gradient concentration of dacarbazine, and established by clone screening and cultured without drug before the experiment.
as §2, §3, §4, §5, §6, §7

B16 melanoma cell lines = assay: Establishment of Opdivo-resistant tumor model, tumor volume over time, B16 melanoma; assay type: in vivo; conditions: B16 melanoma mice, Opdivo 30 mg/kg i.p. every other day
Method: (§9) The concentration of cell lines was adjusted to 1×10^7/ml with the culture medium. 1×10^7/ml of cells were subcutaneously injected into the right armpit of mice, 0.1 ml per mouse.

[12] = test system: CD4+T and CD8+T lymphocytes; assay: Number of CD4+T and CD8+T cells in Opdivo-resistant B16 melanoma mice; assay type: in vivo; conditions: drug-resistant (Opdivo) B16 melanoma mice, average of 6 high power fields
Method: as §1

PD-1/PD-L1 [13] = assay: PD-1/PD-L1 expression rate in tumor tissues of Opdivo-resistant Lewis lung cancer mice; assay type: in vivo; conditions: tumor tissues of drug-resistant (Opdivo) Lewis lung cancer mice
Description: as §8

[14] = test system: Opdivo-resistant B16 melanoma; assay: Antitumor effect (tumor volume, weight, inhibition rate) in Opdivo-resistant B16 melanoma mice; assay type: in vivo
Method: as §9
(§10) The model mice were randomly divided into groups, eight for one group, and included test drug group 1, test drug group 2, test drug group 3, test drug group 4, positive drug Opdivo group, single drug chlorogenic acid group, test drug 1+Opdivo group, test drug 2+Opdivo group, test drug 3+Opdivo group, test drug 4+Opdivo group, and negative group, respectively.
(§11) Test drug group: from the second day after stopping administration to the model, the group received drug by intraperitoneal injection, once a day, 30 mg/kg.
(§12) Single drug group: from the second day after stopping administration to the model, the group received drug by intraperitoneal injection, once a day, 30 mg/kg.
(§13) Test drug+Opdivo group: from the second day after stopping administration to the model, the group received the test drug by intraperitoneal injection, once a day, and the test drug was stopped after administrating for 5 consecutive days; on the next day, Opdivo was intraperitoneally injected, once every other day, with the dosage of 30 mg/kg.
(§14) Positive drug group: once every other day, 30 mg/kg.
(§15) Negative group: normal saline was intraperitoneally injected, once a day, the same amount of saline.
(§16) Before each administration, the tumor volume was measured, and the experiment was stopped when the average tumor volume of negative group was greater than 1.5 cm^3.
as §7

[15] = test system: Lewis lung cancer cell lines; assay: Establishment of Opdivo-resistant tumor model, tumor volume over time, Lewis lung cancer; assay type: in vivo; conditions: Lewis lung cancer mice, Opdivo 30 mg/kg i.p. every other day
Method: as §9

PD-1/PD-L1 [16] = assay: PD-1/PD-L1 expression rate in tumor tissues of Opdivo-resistant B16 melanoma mice; assay type: in vivo; conditions: tumor tissues of drug-resistant (Opdivo) B16 melanoma mice
Description: as §8

[17] = test system: Opdivo-resistant Lewis lung cancer; assay: Antitumor effect (tumor volume, weight, inhibition rate) in Opdivo-resistant Lewis lung cancer mice; assay type: in vivo
Method: as §9, §10, §11, §12, §13, §14, §15, §16, §7

[18] = test system: CD4+T and CD8+T lymphocytes; assay: Number of CD4+T and CD8+T cells in Opdivo-resistant Lewis lung cancer mice; assay type: in vivo; conditions: drug-resistant (Opdivo) Lewis lung cancer mice, average of 6 high power fields
Method: as §1

[19] = 30 mg/kg i.p. once a day, + Opdivo groups: test drug 5 days, then Opdivo 30 mg/kg every other day
[20] = 30 mg/kg i.p., + Opdivo groups 30 + 30 mg/kg

## Nc1ccn([C@@H]2O[C@H](CO)[C@@H](O)C2(F)F)c(=O)n1 [Gemcitabine, gemcitabine, reference compound]
[1]
  CD4 + T cells (number): 82.16 ± 1.42
  CD8 + T cells (number): 112.53 ± 4.28
[2]; Homo sapiens, gemcitabine against drug-resistant A549 lung cancer cell lines, MTT, 48 h, read-out: IC50 Concentration
  IC50: 3620 µg/mL (≈ 13.8 mM)
[2]; IC50 of drug-resistant cells/IC50 of sensitive cells, A549
  Drug-resistant index: 4.63
[3]
  Tumor inhibitory rate (%): 5.24%
  Tumor weight (g): 2.17 ± 0.89 ^ g
[4]
  Tumor weight: 2.27 ± 0.38 g
  Tumor-inhibition rate (%): 3.81%
[4]; multidrug-resistant Lewis lung cancer mice, positive drug groups
  inhibitory effect on the tumor (in words): don't have obvious inhibitory effect
PD-1/PD-L1 [5]
  Expression rate of PD-1/PD-L1, Positive PD-L1: 74.35%
[6]
  CD4 + T cells (number): 77.69 ± 8.96
  CD8 + T cells (number): 121.08 ± 10.32
PD-1/PD-L1 [7]
  Expression rate of PD-1/PD-L1, Positive PD-L1: 78.93%

## CN(C)/N=N/c1[nH]cnc1C(N)=O [Dacarbazine, 5-(3,3-dimethyl-1-triazenyl)-4-carboxamideimidazolium citrate, reference compound]
PD-1/PD-L1 [8]
  Expression rate of PD-1/PD-L1, Positive PD-L1: 72.51%
[9]
  CD4 + T cells (number): 63.67 ± 5.83
  CD8 + T cells (number): 91.23 ± 3.84
[10]; Homo sapiens, A-375, dacarbazine against drug-resistant A375 melanoma cell lines, MTT, 48 h, read-out: IC50 Concentration
  IC50: 560 µg/mL
[10]; IC50 of drug-resistant cells/IC50 of sensitive cells, A375
  Drug-resistant index: 6.22
[4]
  Tumor weight: 2.33 ± 0.52 g
  Tumor-inhibition rate (%): 1.27%
PD-1/PD-L1 [5]
  Expression rate of PD-1/PD-L1, Positive PD-L1: 72.51%
[6]
  CD4 + T cells (number): 74.52 ± 7.38
  CD8 + T cells (number): 123.74 ± 12.85
[11]
  Tumor inhibition rate (%): 4.55%
  Tumor weight: 2.52 ± 0.77 g

## Opdivo: human programmed death receptor-1 (PD-1) blocking antibody; PD-1 inhibitor
B16 melanoma cell lines; 2 d after inoculation
  Tumor volume, Model group (cm^3): 0.00 ± 0.000 ** cm^3
B16 melanoma cell lines; 4 d after inoculation
  Tumor volume, Model group (cm^3): 0.084 ± 0.047 ** cm^3
B16 melanoma cell lines; 6 d after inoculation
  Tumor volume, Model group (cm^3): 0.106 ± 0.043 ** cm^3
B16 melanoma cell lines; 8 d after inoculation
  Tumor volume, Model group (cm^3): 0.128 ± 0.062 ** cm^3
B16 melanoma cell lines; 10 d after inoculation
  Tumor volume, Model group (cm^3): 0.179 ± 0.147 ** cm^3
B16 melanoma cell lines; 12 d after inoculation
  Tumor volume, Model group (cm^3): 0.286 ± 0.116 ** cm^3
B16 melanoma cell lines; 14 d after inoculation
  Tumor volume, Model group (cm^3): 0.881 ± 0.204 cm^3
[12]
  CD4 + T cells (number): 74.63 ± 6.35
  CD8 + T cells (number): 88.61 ± 5.82
PD-1/PD-L1 [13]
  Expression rate of PD-1/PD-L1, Positive PD-L1: 72.77%
[14]
  continuous treatment effect / effect on tumor volume control (in words): not obvious
[14]; [19]
  Tumor volume (cm^3): 1.793 ± 0.842 cm^3
[14]; [20]
  Tumor inhition rate (%): 1.41%
  Tumor weight: 2.79 ± 1.13 g
[15]; 4 d after inoculation
  Tumor volume, Model group (cm^3): 0.00 ± 0.000 ** cm^3
[15]; 6 d after inoculation
  Tumor volume, Model group (cm^3): 0.073 ± 0.052* cm^3
[15]; 8 d after inoculation
  Tumor volume, Model group (cm^3): 0.098 ± 0.075** cm^3
[15]; 10 d after inoculation
  Tumor volume, Model group (cm^3): 0.121 ± 0.101** cm^3
[15]; 12 d after inoculation
  Tumor volume, Model group (cm^3): 0.164 ± 0.084** cm^3
[15]; 14 d after inoculation
  Tumor volume, Model group (cm^3): 0.226 ± 0.113** cm^3
[15]; 16 d after inoculation
  Tumor volume, Model group (cm^3): 0.464 ± 0.154* cm^3
[15]; 18 d after inoculation
  Tumor volume, Model group (cm^3): 0.984 ± 0.236 cm^3
PD-1/PD-L1 [16]
  Expression rate of PD-1/PD-L1, Positive PD-L1: 85.87%
[17]
  continuous treatment effect / effect on tumor volume control (in words): not obvious
[17]; [19]
  Tumor volume (cm^3): 1.616 ± 0.772 cm^3
[17]; [20]
  Tumor inhibition rate (%): 2.38%
  Tumor weight: 2.52 ± 0.83 g
[18]
  CD4 + T cells (number): 64.22 ± 7.74
  CD8 + T cells (number): 117.81 ± 7.99
